The record followed here is patent US4321376A, “Neplanocin-B and -F” (Toyo Jozo Kabushiki Kaisha, priority 1979, dated 1982).

Data set [1] relates to mice. As to the kind of experiment: Acute toxicity, intraperitoneal administration to mice. Format: in vivo, mouse. The note with it: 100 mg/kg.
A short description of data set [2]: Nature (basicity). The class given is physicochemical.
Data set [3] is described as follows: Solubility. As to conditions: for Solubility: insoluble in: solvents in which insoluble; for Solubility: soluble in: solvents in which soluble. The class given is physicochemical.
Data set [4] in a line: Anti-depressant activity. The note with it: no test details given.

As for `Nc1ncnc2c1ncn2C1C(O)C2OC2(CO)C1O` (stereo not drawn) [neplanocin B], the “Acute toxicity: mortalities” value in data set [1] was “No mortalities were observed”. For the same molecule, the Nature result in data set [2] was “weakly basic”. In data set [3], the “Solubility: insoluble in” value was “Insoluble: ethyl acetate, chloroform, benzene and diethyl ether”; the “Solubility: soluble in” value was “Soluble: water and dimethyl sulphoxide”. For the same molecule, the anti-depressant activity entry in data set [4] is “has an anti-depressant activity”.

Take `Nc1ncnc2c1ncn2C1C(O)C=C(CO)C1O` (stereo not drawn) [neplanocin F]: the “Acute toxicity: mortalities” value in data set [1] was “No mortalities were observed”. Also, the Nature entry in data set [2] was “weakly basic”. For the same molecule, in data set [3], the “Solubility: insoluble in” value was “Insoluble: ethyl acetate, chloroform, benzene and diethyl ether”; the “Solubility: soluble in” value was “Soluble: water, dimethyl sulphoxide and acetic acid”.
